Data from US12285454B2, “Anti-aging chinese herb extract, extraction method and use thereof” (HEALTH LIFE BIOSCIENCES INC, priority 2019, dated 2025).

Target: T1, telomerase (Homo sapiens, UniProt O14746)
T1 construct: endogenous in cells; host or cells: CCL137 normal human fibroblast cell line (ATCC)
Assay: Telomerase activity by PCR-ELISA (TRAP) in normal human fibroblasts
Format: cell-based
Conditions: CCL137 normal human fibroblasts, X ± S, N = 9
Description: • Telomerase Activity Assay Kit (Roche, Switzerland); • CCL137 human fibroblast cell lines (American Type Culture Collection (ATCC)); • Ginseng-Astragalus membranaceus extract: the extract prepared in Example 1 of the present invention; • Astragalus membranaceus extract: the Astragalus membranaceus extract prepared in Example 3 of the present invention; • Ginseng extract: the ginseng extract prepared in Example 2 of the present invention. Method The effects of different extracts on the telomerase activity were detected by PCR-ELISA. Principle: This method is based on establishment of Telomeric Repeat Amplification Protocol (TRAP), which is used for PCR Amplification of telomerase mediated derivatives and combined with the subsequent ELISA method. […]
For the sample of each group, to the EP tube, 20 μl of the denaturing reagent were added and marked, and 5 μl of the obtained product after the PCR amplification was added. […] The absorbance value is then detected at 450 nm using the microplate reader and A690 nm was taken as a reference, and the value of the negative control will be subtracted from the absorption value for the sample of each group. […]
The test results were analyzed and processed by a SPSS18.0 statistical software. […]
The test methods and procedures for detection of the telomerase activity were the same as the Test Example 1, and the measured results were shown in Table 5.

T1 sequence (O14746 whole entry): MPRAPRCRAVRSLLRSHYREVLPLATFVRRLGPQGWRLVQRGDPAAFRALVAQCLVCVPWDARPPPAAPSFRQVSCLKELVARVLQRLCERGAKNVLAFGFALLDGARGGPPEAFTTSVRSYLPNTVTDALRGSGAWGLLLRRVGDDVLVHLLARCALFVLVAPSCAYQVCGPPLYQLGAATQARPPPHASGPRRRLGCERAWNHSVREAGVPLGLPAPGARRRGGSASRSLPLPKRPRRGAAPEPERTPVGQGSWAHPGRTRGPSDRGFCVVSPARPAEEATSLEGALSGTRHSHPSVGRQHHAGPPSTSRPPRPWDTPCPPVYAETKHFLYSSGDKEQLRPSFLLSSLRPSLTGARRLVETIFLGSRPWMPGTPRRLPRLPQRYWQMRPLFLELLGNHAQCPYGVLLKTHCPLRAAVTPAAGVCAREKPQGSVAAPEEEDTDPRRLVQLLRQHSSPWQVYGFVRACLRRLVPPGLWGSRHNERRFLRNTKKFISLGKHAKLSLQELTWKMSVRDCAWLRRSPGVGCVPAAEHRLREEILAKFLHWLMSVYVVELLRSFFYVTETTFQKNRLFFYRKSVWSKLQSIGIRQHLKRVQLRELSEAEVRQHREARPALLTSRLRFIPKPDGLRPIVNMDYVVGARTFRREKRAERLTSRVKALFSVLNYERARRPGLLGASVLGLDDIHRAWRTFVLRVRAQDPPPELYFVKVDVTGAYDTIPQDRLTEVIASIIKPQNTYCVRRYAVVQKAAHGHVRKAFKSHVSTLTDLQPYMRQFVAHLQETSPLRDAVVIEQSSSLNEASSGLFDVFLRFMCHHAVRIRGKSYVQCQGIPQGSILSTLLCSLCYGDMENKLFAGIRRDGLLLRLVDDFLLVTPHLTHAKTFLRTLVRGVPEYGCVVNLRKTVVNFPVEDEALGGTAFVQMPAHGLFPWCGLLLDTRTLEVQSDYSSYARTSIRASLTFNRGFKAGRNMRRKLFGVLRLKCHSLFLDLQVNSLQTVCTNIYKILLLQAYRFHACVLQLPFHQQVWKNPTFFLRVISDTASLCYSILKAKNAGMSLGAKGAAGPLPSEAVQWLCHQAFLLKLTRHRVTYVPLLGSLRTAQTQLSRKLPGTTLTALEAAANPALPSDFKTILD

Astragaloside
Telomerase activity (ΔA) (Table 5, high concentration group, extract concentration 100 ug/mL): 0.436 | Telomerase activity (ΔA) (Table 5, medium concentration group, extract concentration 50 ug/mL): 0.453
